This note sets out measurements from patent US9902739B2, “Small molecule inhibitors of G protein coupled receptor 6 kinases polypeptides” (Mayo Foundation for Medical Education and Research, priority 2014, dated 2018).

The structures appear in SMILES notation. pIC50: −log10 of the molar value.

For this experiment, the target named is T1, GRK6, recombinant full-length GST-tagged human protein (Homo sapiens, UniProt P43250).
T1 construct: Enzyme: 20 nM GRK6, recombinant full-length GST-tagged human protein; GST
The experiment is described as follows: GRK6 assay, IC50 determination (8-point concentration-response). In kind it is biochemical. A digest of the protocol:
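Full-length GST-tagged human GRK6 (20 nM) with 1 μM Peptide 216 in 50 mM TRIS-HCl pH 7.5, 5 mM MgCl2, 2 mM DTT, 0.01% Triton X-100, 1% DMSO. IC50 from 8-point singlicate concentration-response, top 60 μM, 3-fold steps; compounds inhibiting >50% at all concentrations retested at lower range.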

[1] abbreviates: Series 4 (Table 14), conditions as Example 18.
[2] abbreviates: Series 1 (Table 11), 20 nM GRK6, ATP 12 μM (Km), Peptide 216 1 μM, incubation 7 h.
Setting [3] is: Series 3 (Table 13), conditions as Example 18.

T1 sequence (P43250 whole entry): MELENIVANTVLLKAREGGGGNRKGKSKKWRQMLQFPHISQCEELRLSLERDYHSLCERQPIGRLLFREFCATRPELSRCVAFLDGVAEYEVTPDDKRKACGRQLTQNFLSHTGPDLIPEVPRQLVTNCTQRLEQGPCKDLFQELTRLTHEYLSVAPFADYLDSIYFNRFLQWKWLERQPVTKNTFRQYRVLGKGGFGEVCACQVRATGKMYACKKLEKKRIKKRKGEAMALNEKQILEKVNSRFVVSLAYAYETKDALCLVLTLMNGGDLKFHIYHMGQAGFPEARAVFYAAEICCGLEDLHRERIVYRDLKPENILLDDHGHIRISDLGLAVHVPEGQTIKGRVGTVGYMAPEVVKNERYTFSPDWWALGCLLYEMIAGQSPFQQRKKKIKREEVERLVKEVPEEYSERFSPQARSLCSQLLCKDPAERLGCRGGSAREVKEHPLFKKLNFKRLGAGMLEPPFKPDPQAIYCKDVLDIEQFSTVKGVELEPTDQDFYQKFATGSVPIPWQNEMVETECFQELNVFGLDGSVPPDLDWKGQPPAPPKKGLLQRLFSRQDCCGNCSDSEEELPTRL

With `Cc1nc(-c2nnc(SCC(=O)O)[nH]2)c[nH]1` [Compound 4-52], the pIC50 under setting [1] is < 4.00. As to `COc1ccc(-c2ccc(-c3nnc(SCC(=O)O)[nH]3)o2)cc1` [Compound 1-81], the pIC50 under setting [2] was 5.92. In the case of `Cc1ccc2sc(-c3nnc(SCC(=O)O)[nH]3)cc2c1` [Compound 4-9], the pIC50 under setting [1] is 5.58.

With `N#Cc1c[nH]c2cc(-c3ccc(-c4nnc(SCC(=O)O)[nH]4)o3)ccc12` [Compound 1-33], the negative-log IC50 (pIC50) under setting [2] is 6.48. Take `FC(F)(F)c1cccc(-c2ccc(-c3nnc(SCc4nnn[nH]4)[nH]3)o2)c1` [Compound 3-16]: under setting [3], the negative logarithm of the IC50 (pIC50) is 5.59. Take `Fc1ccc(-c2ccc(-c3nnc(SCc4nnn[nH]4)[nH]3)o2)cc1F` [Compound 3-29]: the pIC50 under setting [3] is 5.16. With `O=C(O)CSc1nnc(-c2ccc(-c3cc(Cl)ccc3F)o2)[nH]1` [Compound 1-28], the pIC50 under setting [2] was 6.51. The same measure, in the same setting: under `N#Cc1cccc(COc2cccc(-c3ccc(-c4nnc(SCC(=O)O)[nH]4)o3)c2)c1` [Compound 1-6] stands 6.79; under `COc1ccc2cc(C#Cc3ccc(-c4nnc(SCC(=O)O)[nH]4)o3)ccc2c1` [Compound 1-11], 6.73; under `CCOc1ccc2ccc(-c3ccc(-c4nnc(SCC(=O)O)[nH]4)o3)cc2c1` [Compound 1-38], 6.44. Regarding `Cn1ncc(-c2nnc(SCC(=O)O)[nH]2)c1-c1ccccc1` [Compound 4-14], the pIC50 under setting [1] is 5.24. Consider `CC(=O)Nc1cccc(-c2ccc(-c3nnc(SCc4nnn[nH]4)[nH]3)o2)c1` [Compound 3-23], for which the negative logarithm of the IC50 (pIC50) under setting [3] is 5.42. The same measure, in the same setting: under `CNS(=O)(=O)c1ccc(-c2ccc(-c3nnc(SCc4nnn[nH]4)[nH]3)o2)cc1` [Compound 3-22] stands 5.42. Consider `Cc1ccc(-c2ccc(-c3nnc(SCC(=O)O)[nH]3)o2)cc1[N+](=O)[O-]` [Compound 1-65], for which, under setting [2], the negative logarithm of the IC50 (pIC50) is 6.15.

Turning to `O=C(O)CSc1nnc(-c2csnn2)[nH]1` [Compound 4-28], under setting [1], the negative-log IC50 (pIC50) was 4.65. Still for that read-out and setting: in the case of `O=C(O)CSc1nnc(-c2ccc(-c3ccc4ccccc4c3)s2)[nH]1` [Compound 4-10] it was 5.53; in that of `O=C(O)CSc1nnc(-c2ccc(N3CCOCC3)nc2)[nH]1` [Compound 4-22], 4.95; in that of `COc1cncc(-c2nnc(SCC(=O)O)[nH]2)c1` [Compound 4-24], 4.89. In the case of `CC(C)Oc1cccc(-c2ccc(-c3nnc(SCC(=O)O)[nH]3)o2)c1` [Compound 1-67], the pIC50 under setting [2] is 6.13.

Usually pIC50 stands for the negative decadic logarithm of the IC50, by convention in mol/L.
